Measured values reported in PubChem BioAssay (NCI).
“And” between values parts separate entries of the source, which are not always exact repeats. Identical values can stand only once.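 Briefly, cells in 96-well plates were exposed to five compound concentrations for 48 h, and endpoints were estimated by linear interpolation. GI50 = concentration required for 50% inhibition of growth. TGI is the concentration that stops growth completely.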

Experiments:
Experiment in all cases: growth of human tumour cells (NCI), 48 h
SF-539 CNS = test system: SF-539 CNS
U251 CNS = test system: U251 CNS
NCI/ADR-RES ovarian = test system: NCI/ADR-RES ovarian
OVCAR-8 ovarian = test system: OVCAR-8 ovarian
COLO 205 colon = test system: COLO 205 colon
OVCAR-5 ovarian = test system: OVCAR-5 ovarian
EKVX NSCLC = test system: EKVX NSCLC
SNB-19 CNS = test system: SNB-19 CNS
SK-MEL-2 melanoma = test system: SK-MEL-2 melanoma
SN12C renal = test system: SN12C renal

Structure (SMILES) | GI50 (SF-539 CNS) | TGI (SF-539 CNS) | GI50 (U251 CNS) | TGI (U251 CNS) | GI50 (NCI/ADR-RES ovarian) | TGI (NCI/ADR-RES ovarian) | GI50 (OVCAR-8 ovarian) | TGI (OVCAR-8 ovarian) | GI50 (COLO 205 colon) | TGI (COLO 205 colon) | GI50 (OVCAR-5 ovarian) | TGI (OVCAR-5 ovarian) | GI50 (EKVX NSCLC) | TGI (EKVX NSCLC) | GI50 (SNB-19 CNS) | TGI (SNB-19 CNS) | GI50 (SK-MEL-2 melanoma) | TGI (SK-MEL-2 melanoma) | GI50 (SN12C renal) | TGI (SN12C renal)
CCCCCCCCCCCC1=NC(C)(C)CN1CC(C)O (stereo unspecified) | 1.67 µM | 3.14 µM | 3.3 µM | 12 µM | 11.8 µM | 24.1 µM | 8.89 µM | 25 µM | 1.68 µM | 3.05 µM | 12.3 µM | 24.8 µM | 11.2 µM | 25.2 µM | 12.9 µM | 25.8 µM | 2.41 µM | 6.12 µM | 7.26 µM | 20.3 µM
COc1ccc(/C=N\NC(=O)c2ccc3nc(-c4ccc(Cl)cc4)[nH]c3c2)cc1 | 1.73 µM | 3.46 µM | 2.43 µM | 5.22 µM | 7.81 µM | > 100 µM | 3.19 µM | 11.5 µM | 1.94 µM | 5.43 µM | 2.35 µM | 6.89 µM | 2.11 µM | 5.84 µM | 3.13 µM | 7.95 µM | 3.59 µM | 13.8 µM | 2.46 µM | 6.79 µM
O=C(Oc1ccccc1Cl)c1ccccc1Nc1cccc(C(F)(F)F)c1 | 22.1 µM | 42.2 µM | 23.6 µM | 58.2 µM | 19 µM | 44.4 µM | 32 µM | > 100 µM | 28 µM | > 100 µM | 30.6 µM | 94.7 µM | 33.1 µM | 79.6 µM | 73.2 µM | > 100 µM | 20.9 µM | > 100 µM | 23.4 µM | > 100 µM
CC#CC#C/C=C1\C=CC2(OC=CC2OC(C)=O)O1 (stereo unspecified) |  | 76.9 µM and 48.8 µM |  | 43.1 µM and 33.2 µM |  | > 100 µM |  | > 100 µM and 51.7 µM |  | 28.2 µM and 33.3 µM | 30.6 µM and 9.87 µM | > 100 µM |  | > 100 µM |  | > 100 µM | 90.2 µM and 28.9 µM | > 100 µM |  | 36.5 µM and 31 µM
COC1C(CO)OC(n2c3c(Cl)cccc3c3c4c(c5c6cccc(Cl)c6[nH]c5c32)C(=O)NC4=O)C(O)C1O (stereo unspecified) |  | 0.489 µM |  | 5.12 µM |  | > 100 µM |  | 16.6 µM |  | 61.4 µM |  | > 41.9 µM |  | > 100 µM |  | > 100 µM |  | > 26.3 µM |  | > 29.2 µM
COc1cc2cnc(-c3ccccc3)cc2cc1OC |  | > 100 µM |  | 56.5 µM |  | 73.6 µM |  | > 100 µM |  | 58.5 µM |  | > 100 µM |  | 34.3 µM |  | > 100 µM |  | 54.6 µM |  | 22.2 µM
COc1ccc(C2=N[C@@H](c3ccc(Cl)cc3)[C@@H](c3ccc(Cl)cc3)N2C(=O)N2CCNC(=O)C2)c(OC(C)C)c1 | 16.5 µM and 17.2 µM and 17.8 µM | 32 µM and 32.9 µM and 35.1 µM | 13.7 µM and 14.8 µM and 16.2 µM | 27.2 µM and 29.5 µM and 31.6 µM | 16.9 µM and 16.7 µM and 16.2 µM | 35 µM and 37.8 µM and 37.1 µM | 15.2 µM and 15.1 µM and 14.8 µM | 31.1 µM and 30.9 µM and 30.1 µM | 15 µM and 16.6 µM and 15.8 µM | 29.4 µM and 34.6 µM and 32.2 µM | 17.1 µM and 16.3 µM and 17.3 µM | 34 µM and 32.2 µM and 34.1 µM | 10.3 µM and 12.1 µM and 12.9 µM | 24.1 µM and 25.2 µM and 27.3 µM | 12.5 µM and 15.5 µM and 14.6 µM | 26.1 µM and 30.1 µM and 28.2 µM | 16.3 µM and 14.6 µM and 15.9 µM | 30.9 µM and 29 µM and 30.6 µM | 15.6 µM and 14.9 µM and 14.1 µM | 34 µM and 29.9 µM and 28.7 µM
O=C1/C(=C/c2ccc(Cl)cc2)CN(C(=O)CCN2CCC(=NO)CC2)C/C1=C\c1ccc(Cl)cc1 | 1.21 µM | 2.55 µM | 0.53 µM | 1.28 µM | 0.93 µM | 3.75 µM | 0.823 µM | 2.62 µM | 0.345 µM | 1.32 µM | 1.36 µM | 2.85 µM | 1.62 µM | 3.45 µM | 0.817 µM | 2.17 µM | 1.95 µM | 3.92 µM | 0.637 µM | 1.68 µM
O=C(c1ccco1)c1nc2cc(C(F)(F)F)ccc2[n+]([O-])c1C(F)(F)F | 81.8 µM | > 100 µM | 37 µM | > 100 µM | 32.4 µM | > 100 µM | > 100 µM | > 100 µM | 43.8 µM | > 100 µM | 31.5 µM | > 100 µM | 34 µM | > 100 µM | 48.3 µM | > 100 µM | 46 µM | > 100 µM | 65.1 µM | > 100 µM
CCCCCCCCCCCCCCCC(=O)OCC1OC(OC)C(NC(=O)N(CCCl)N=O)C(O)C1O (stereo unspecified) |  | 15.3 µM |  | 27 µM |  | 58.9 µM |  | 45.3 µM |  | 47.4 µM |  | > 74 µM |  | > 87.5 µM |  | > 67.2 µM |  | 36.8 µM |  | 39.3 µM
CN(C)c1ccc(Nc2c3ccccc3nc3cc(NC(=O)CCN4CCCC4)ccc23)cc1 | 0.65 µM | 1.92 µM | 0.227 µM | 1.58 µM | 2.91 µM | 12.9 µM | 0.533 µM | 2.96 µM | 0.309 µM | 1.76 µM | 0.89 µM | 2.74 µM | 0.964 µM | 2.62 µM | 0.305 µM | 1.64 µM | 1.75 µM | 3.33 µM | 0.197 µM | 1.25 µM
C[C@@H](Oc1cc(-n2cnc3ccc(OCC4CCN(C)CC4)cc32)sc1C(N)=O)c1ccccc1Cl | 0.107 µM | 1.62 µM | 0.106 µM | 3.86 µM | 0.258 µM | 2.4 µM | 0.0793 µM | 3.11 µM | 0.0165 µM | 0.631 µM | 0.113 µM | 4.19 µM | 0.158 µM | 4.96 µM | 0.177 µM | 5.01 µM | 0.0559 µM | 4.13 µM | 0.344 µM | 4.52 µM
CC(C)=CC(=O)N[C@@H]1CC2CCC3C(CC[C@@]4(C)C3CC[C@@H]4C(C)N(C)C)[C@@]2(C)C[C@@H]1O (stereo partly specified) | 1.59 µM | 3.36 µM | 3.97 µM | 22 µM | 7.05 µM | > 72.6 µM | 12.8 µM | > 53.2 µM | 1.79 µM | 3.71 µM | 10.6 µM | 38.2 µM | 3.12 µM | > 100 µM | 17.8 µM | 60.4 µM | 14.4 µM | 38.2 µM | 9.11 µM | > 44.5 µM
CN(C)c1ccc2cc3ccc(N(C)C)cc3nc2c1 |  | 6.53 µM |  | 5.79 µM |  | 5.06 µM |  | 5.62 µM |  | 22.8 µM |  | 9.82 µM |  | 7.21 µM |  | 3.95 µM |  | 21.9 µM |  | 7.28 µM
O=C1/C(=C/c2ccc(Cl)cc2)CCC1CN1CCOCC1 (stereo unspecified) |  | 34.6 µM |  | 40.2 µM |  | 22.5 µM |  | 17.2 µM |  | > 25.3 µM |  | 45.7 µM |  | 30.7 µM |  | 30.8 µM |  | 33.8 µM |  | 8.9 µM
CN(C)CC1CCCCCC(Br)C1=O (stereo unspecified) |  | 31.8 µM |  | 43 µM |  | 37.8 µM |  | 32.8 µM |  | 31.6 µM |  | > 52.2 µM |  | 30.8 µM |  | > 100 µM |  | 54.4 µM |  | 32.2 µM
COc1ccc2c(c1)C(=O)c1c-2c(N2CCN(C(=O)CNCCN(C)C)CC2)nc2ccccc12 | 1.6 µM | 3.03 µM | 2.19 µM | 4.68 µM | 4.28 µM | 19.9 µM | 3.9 µM | 17.5 µM | 1.65 µM | 3.2 µM | 2.2 µM | 5.82 µM | 3.87 µM | 15.7 µM | 4.99 µM | 19.8 µM | 2.07 µM | 3.83 µM | 2.54 µM | 7.56 µM
O=C(c1nn(-c2ccc(Cl)cc2)cc1O)n1nc(C(F)(F)F)cc1-c1ccccc1 | 2.7 µM | > 100 µM | 2.65 µM | > 100 µM | 2.09 µM | > 35.9 µM | 1.87 µM | > 100 µM | 2.97 µM | > 44.2 µM |  | > 85 µM | 2 µM | > 100 µM | 3.98 µM | > 100 µM | 38.2 µM | > 100 µM | 3.57 µM | > 100 µM
